Data from ChEMBL document CHEMBL1671617, “Correlation of antimicrobial resistance with beta-lactamases, the OmpA-like porin, and efflux pumps in clinical isolates of Acinetobacter baumannii endemic to New York City” (2008).
≈ marks a conversion by molar mass, not a printed value.

Tests used:
Format in all cases: functional
[1] = test system: Acinetobacter baumannii; experiment: Antimicrobial activity against Acinetobacter baumannii unique clonal group isolate 39 expressing ampC, ompA, adeM by Etest method
[2] = test system: Acinetobacter baumannii; experiment: Antimicrobial activity against ISAba1 linked with the blaOXA-51-type beta-lactamase harboring Acinetobacter baumannii zeta clonal group isolate 25 expressing ampC, ompA, adeB, adeM, aadA1, aacA4, aacC2, blaSHV-5 by Etest method
[3] = test system: Acinetobacter baumannii; experiment: Antimicrobial activity against ISAba1 linked with the blaOXA-51-type beta-lactamase harboring Acinetobacter baumannii lambda clonal group isolate 28 expressing ampC, ompA, adeM, aadB, aadA1 by Etest method
[4] = test system: Acinetobacter baumannii; experiment: Antimicrobial activity against Acinetobacter baumannii unique clonal group isolate 37 expressing ampC, ompA, adeB, adeM by Etest method
[5] = test system: Acinetobacter baumannii; experiment: Antimicrobial activity against Acinetobacter baumannii eta clonal group isolate 35 expressing ampC, ompA, adeB, adeM by Etest method
[6] = test system: Acinetobacter baumannii; experiment: Antimicrobial activity against ISAba1 linked with the blaOXA-51-type beta-lactamase harboring Acinetobacter baumannii beta clonal group isolate 12 expressing ompA, adeB, adeM, aacA4, aacC2, blaSHV-5 by Etest method
[7] = test system: Acinetobacter baumannii; experiment: Antimicrobial activity against ISAba1 linked with the blaOXA-51-type beta-lactamase harboring Acinetobacter baumannii lambda clonal group isolate 29 expressing ampC, ompA, adeM, aadB, aadA1 by Etest method
[8] = test system: Acinetobacter baumannii; experiment: Antimicrobial activity against Acinetobacter baumannii unique clonal group isolate 38 expressing ampC, ompA, adeB, adeM by Etest method
[9] = test system: Acinetobacter baumannii; experiment: Antimicrobial activity against Acinetobacter baumannii alpha clonal group isolate 2 expressing ampC, ompA, adeB, adeM, aacC1, aadA1 by Etest method
[10] = test system: Acinetobacter baumannii; experiment: Antimicrobial activity against Acinetobacter baumannii eta clonal group isolate 36 expressing ampC, ompA, adeB, adeM by Etest method
[11] = test system: Acinetobacter baumannii; experiment: Antimicrobial activity against ISAba1 linked with the blaOXA-51-type beta-lactamase harboring Acinetobacter baumannii unique clonal group isolate 40 expressing ampC, ompA, adeB, adeM, aadA1, aacA4, aacC2, blaSHV-5 by Etest method
[12] = test system: Acinetobacter baumannii; experiment: Antimicrobial activity against ISAba1 linked with the blaOXA-51-type beta-lactamase harboring Acinetobacter baumannii beta clonal group isolate 17 expressing ompA, adeB, adeM, aacA4, blaSHV-5 by Etest method
[13] = test system: Acinetobacter baumannii; experiment: Antimicrobial activity against ISAba1 linked with the blaOXA-51-type beta-lactamase harboring Acinetobacter baumannii alpha clonal group isolate 6 expressing ampC, ompA, adeB, adeM, aacC1, aadA1 by Etest method
[14] = test system: Acinetobacter baumannii; experiment: Antimicrobial activity against ISAba1 linked with the blaOXA-51-type beta-lactamase harboring Acinetobacter baumannii zeta clonal group isolate 23 expressing ampC, ompA, adeB, adeM, aadA1, aacA4, aacC2, aphA6 by Etest method
[15] = test system: Acinetobacter baumannii; experiment: Antimicrobial activity against ISAba1 linked with the blaOXA-51-type beta-lactamase harboring Acinetobacter baumannii zeta clonal group isolate 26 expressing ampC, ompA, adeB, adeM, aadA1, aacA4, aacC2, blaSHV-5 by Etest method
[16] = test system: Acinetobacter baumannii; experiment: Antimicrobial activity against Acinetobacter baumannii nu clonal group isolate 33 expressing ampC, ompA, adeB, adeM by Etest method
[17] = test system: Acinetobacter baumannii; experiment: Antimicrobial activity against Acinetobacter baumannii alpha clonal group isolate 5 expressing ampC, ompA, adeB, adeM, aacC1, aadA1 by Etest method
[18] = test system: Acinetobacter baumannii; experiment: Antimicrobial activity against ISAba1 linked with the blaOXA-51-type beta-lactamase harboring Acinetobacter baumannii beta clonal group isolate 16 expressing ompA, adeB, adeM, aacA4, blaSHV-5 by Etest method
[19] = test system: Acinetobacter baumannii; experiment: Antimicrobial activity against ISAba1 linked with the blaOXA-51-type beta-lactamase harboring Acinetobacter baumannii zeta clonal group isolate 24 expressing ampC, ompA, adeB, adeM, aadA1, aacA4, aacC2, blaSHV-5 by Etest method
[20] = test system: Acinetobacter baumannii; experiment: Antimicrobial activity against ISAba1 linked with the blaOXA-51-type beta-lactamase harboring Acinetobacter baumannii beta clonal group isolate 10 expressing ompA, adeB, adeM, aacA4, blaSHV-5 by Etest method
[21] = test system: Acinetobacter baumannii; experiment: Antimicrobial activity against Acinetobacter baumannii lambda clonal group isolate 27 expressing ampC, ompA, adeB, adeM, aadB, aadA1 by Etest method
[22] = test system: Acinetobacter baumannii; experiment: Antimicrobial activity against ISAba1 linked with the blaOXA-51-type beta-lactamase harboring Acinetobacter baumannii zeta clonal group isolate 22 expressing ampC, ompA, adeB, adeM, aadA1, aacA4, aacC2, blaSHV-5 by Etest method
[23] = test system: Acinetobacter baumannii; experiment: Antimicrobial activity against Acinetobacter baumannii alpha clonal group isolate 3 expressing ampC, ompA, adeB, adeM, aacC1, aadA1 by Etest method
[24] = test system: Acinetobacter baumannii; experiment: Antimicrobial activity against Acinetobacter baumannii nu clonal group isolate 34 expressing ampC, ompA, adeB, adeM by Etest method
[25] = test system: Acinetobacter baumannii; experiment: Antimicrobial activity against ISAba1 linked with the blaOXA-51-type beta-lactamase harboring Acinetobacter baumannii zeta clonal group isolate 20 expressing ampC, ompA, adeB, adeM, aacC2 by Etest method
[26] = test system: Acinetobacter baumannii; experiment: Antimicrobial activity against Acinetobacter baumannii alpha clonal group isolate 4 expressing ampC, ompA, adeB, adeM, aacC1, aadA1 by Etest method
[27] = test system: Acinetobacter baumannii; experiment: Antimicrobial activity against ISAba1 linked with the blaOXA-51-type beta-lactamase harboring Acinetobacter baumannii alpha clonal group isolate 1 expressing ampC, ompA, adeB, adeM by Etest method
[28] = test system: Acinetobacter baumannii; experiment: Antimicrobial activity against ISAba1 linked with the blaOXA-51-type beta-lactamase harboring Acinetobacter baumannii beta clonal group isolate 18 expressing ompA, adeB, adeM, aacA4, blaSHV-5 by Etest method
[29] = test system: Acinetobacter baumannii; experiment: Antimicrobial activity against ISAba1 linked with the blaOXA-51-type beta-lactamase harboring Acinetobacter baumannii zeta clonal group isolate 19 expressing ampC, ompA, adeB, adeM, aacC2 by Etest method
[30] = test system: Acinetobacter baumannii; experiment: Antimicrobial activity against Acinetobacter baumannii nu clonal group isolate 31 expressing ampC, ompA, adeB, adeM, aadB, aadA2 by Etest method
[31] = test system: Acinetobacter baumannii; experiment: Antimicrobial activity against ISAba1 linked with the blaOXA-51-type beta-lactamase harboring Acinetobacter baumannii beta clonal group isolate 9 expressing ampC, ompA, adeB, adeM by Etest method
[32] = test system: Acinetobacter baumannii; experiment: Antimicrobial activity against ISAba1 linked with the blaOXA-51-type beta-lactamase harboring Acinetobacter baumannii beta clonal group isolate 13 expressing ompA, adeB, adeM, aacA4, blaSHV-5 by Etest method
[33] = test system: Acinetobacter baumannii; experiment: Antimicrobial activity against ISAba1 linked with the blaOXA-51-type beta-lactamase harboring Acinetobacter baumannii lambda clonal group isolate 30 expressing ampC, ompA, adeB, adeM, aadB, aadA1 by Etest method
[34] = test system: Acinetobacter baumannii; experiment: Antimicrobial activity against ISAba1 linked with the blaOXA-51-type beta-lactamase harboring Acinetobacter baumannii beta clonal group isolate 15 expressing ompA, adeB, adeM, aacA4, blaSHV-5 by Etest method
[35] = test system: Acinetobacter baumannii; experiment: Antimicrobial activity against ISAba1 linked with the blaOXA-51-type beta-lactamase harboring Acinetobacter baumannii zeta clonal group isolate 21 expressing ampC, ompA, adeB, adeM, aacC2, blaSHV-5 by Etest method
[36] = test system: Acinetobacter baumannii; experiment: Antimicrobial activity against ISAba1 linked with the blaOXA-51-type beta-lactamase harboring Acinetobacter baumannii beta clonal group isolate 14 expressing ompA, adeB, adeM, aacA4, blaSHV-5 by Etest method
[37] = test system: Acinetobacter baumannii; experiment: Antimicrobial activity against ISAba1 linked with the blaOXA-51-type beta-lactamase harboring Acinetobacter baumannii alpha clonal group isolate 7 expressing ampC, ompA, adeB, adeM, blaSHV-5 by Etest method
[38] = test system: Acinetobacter baumannii; experiment: Antimicrobial activity against ISAba1 linked with the blaOXA-51-type beta-lactamase harboring Acinetobacter baumannii alpha clonal group isolate 8 expressing ampC, ompA, adeB, adeM, aacC1, aadA1 by Etest method
[39] = test system: Acinetobacter baumannii; experiment: Antimicrobial activity against ISAba1 linked with the blaOXA-51-type beta-lactamase harboring Acinetobacter baumannii beta clonal group isolate 11 expressing ompA, adeB, adeM, blaSHV-5 by Etest method
[40] = test system: Acinetobacter baumannii; experiment: Antimicrobial activity against Acinetobacter baumannii nu clonal group isolate 32 expressing ampC, ompA, adeB, adeM, aadB, aadA2 by Etest method

Row | Compound | MIC [1] [mg/L] | MIC [2] [mg/L] | MIC [4] [mg/L] | MIC [5] [mg/L] | MIC [6] [mg/L] | MIC [8] [mg/L] | MIC [9] [mg/L] | MIC [10] [mg/L] | MIC [11] [mg/L] | MIC [12] [mg/L] | MIC [13] [mg/L] | MIC [14] [mg/L] | MIC [15] [mg/L] | MIC [16] [mg/L] | MIC [17] [mg/L] | MIC [18] [mg/L] | MIC [19] [mg/L] | MIC [20] [mg/L] | MIC [21] [mg/L] | MIC [22] [mg/L] | other results
1 | CC(C)(O/N=C(\C(=O)N[C@@H]1C(=O)N2C(C(=O)[O-])=C(C[n+]3ccccc3)CS[C@H]12)c1csc(N)n1)C(=O)O [CEFTAZIDIME] | 4 (≈ 7.32 µM) | > 256 | 12 (≈ 22 µM) | 12 (≈ 22 µM) | > 256 | 16 (≈ 29.3 µM) | > 256 | 12 (≈ 22 µM) | > 256 | > 48 | > 256 | 16 (≈ 29.3 µM) | > 256 | 6 (≈ 11 µM) | > 256 | > 48 | > 256 | 48 (≈ 87.8 µM) | > 256 | > 256 | MIC [3]: > 256 mg/L; MIC [7]: > 256 mg/L; MIC [23]: > 256 mg/L; MIC [24]: 6 mg/L (≈ 11 µM); MIC [25]: 24 mg/L (≈ 43.9 µM); MIC [26]: > 256 mg/L; MIC [27]: > 256 mg/L; MIC [28]: 96 mg/L (≈ 176 µM); MIC [29]: 24 mg/L (≈ 43.9 µM); MIC [30]: 4 mg/L (≈ 7.32 µM); MIC [31]: 48 mg/L (≈ 87.8 µM); MIC [32]: > 48 mg/L; MIC [33]: > 256 mg/L; MIC [34]: > 48 mg/L; MIC [35]: 32 mg/L (≈ 58.5 µM); MIC [36]: > 48 mg/L; MIC [37]: > 256 mg/L; MIC [38]: 96 mg/L (≈ 176 µM); MIC [39]: 128 mg/L (≈ 234 µM); MIC [40]: 4 mg/L (≈ 7.32 µM)
2 | C[C@H]1COc2c(N3CCN(C)CC3)c(F)cc3c(=O)c(C(=O)O)cn1c23.C[C@H]1COc2c(N3CCN(C)CC3)c(F)cc3c(=O)c(C(=O)O)cn1c23.O [LEVOFLOXACIN] | 0.09 | 16 | 6 | > 6 | > 32 | 0.13 | > 12 | > 6 | > 32 | > 32 | 6 | 12 | 16 | 4 | > 12 | > 32 | 16 | > 32 | 3 | 16 | MIC [23]: > 12 mg/L; MIC [24]: 4 mg/L; MIC [25]: 12 mg/L; MIC [26]: > 12 mg/L; MIC [27]: 16 mg/L; MIC [28]: > 32 mg/L; MIC [29]: 12 mg/L; MIC [30]: > 12 mg/L; MIC [31]: > 32 mg/L; MIC [32]: > 32 mg/L; MIC [33]: 16 mg/L; MIC [34]: > 32 mg/L; MIC [35]: > 32 mg/L; MIC [36]: > 32 mg/L; MIC [37]: 6 mg/L; MIC [38]: 32 mg/L; MIC [39]: > 32 mg/L; MIC [40]: > 12 mg/L
